Measurements from article PMC7703563 (Proceedings of the National Academy of Sciences of the …, 2020).
One block for each molecule: values may come before it.

Key:
[1] = target: T1, MANEA-Δ97 (human endo-α-1,2-mannosidase catalytic domain, GH99) (Homo sapiens, UniProt Q5SRI9); experiment: isothermal titration calorimetry; type: binding
T1 sequence (Q5SRI9 98-462): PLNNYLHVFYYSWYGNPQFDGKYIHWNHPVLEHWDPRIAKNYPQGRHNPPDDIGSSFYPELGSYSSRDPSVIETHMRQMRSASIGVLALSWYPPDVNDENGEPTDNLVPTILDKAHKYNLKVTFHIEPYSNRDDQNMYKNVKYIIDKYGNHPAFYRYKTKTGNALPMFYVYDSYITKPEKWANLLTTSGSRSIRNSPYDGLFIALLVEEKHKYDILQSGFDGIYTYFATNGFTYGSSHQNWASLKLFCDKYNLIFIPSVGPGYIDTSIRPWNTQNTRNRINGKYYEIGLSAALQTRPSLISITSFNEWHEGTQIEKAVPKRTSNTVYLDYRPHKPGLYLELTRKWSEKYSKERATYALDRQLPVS

[2] = target: T1, MANEA-Δ97 (human endo-α-1,2-mannosidase catalytic domain, GH99); experiment: X-ray crystal structure; type: binding; conditions: ternary complex with GlcIFG; +1/+2 subsites
purified protein = substrate: CO[C@H]1O[C@H](CO)[C@@H](O)[C@H](O)[C@@H]1O[C@H]1O[C@H](CO)[C@@H](O)[C@H](O)[C@@H]1O[C@H]1O[C@H](CO)[C@@H](O)[C@H](O[C@H]2O[C@H](CO)[C@@H](O)[C@H](O)[C@H]2O)[C@@H]1O; experiment: purified protein; conditions: α-mannosidase-coupled release of mannose

- Kd [1]: 1020 nM
Molecule: OC[C@H]1NC[C@@H](O)[C@@H](O[C@H]2O[C@H](CO)[C@@H](O)[C@H](O)[C@H]2O)[C@@H]1O [GlcDMJ]

Molecule: OC[C@H]1O[C@H](O[C@@H]2C(O)O[C@H](CO)[C@@H](O)[C@@H]2O)[C@@H](O)[C@@H](O)[C@@H]1O (stereo partly drawn) [α-1,2-mannobiose]
- X-ray crystal structure [2]: a ternary complex with GlcIFG and α-1,2-mannobiose

B1: MANEA-Δ97 (human endo-α-1,2-mannosidase catalytic domain, GH99) (Homo sapiens) (protein)
chain: T1 sequence (Q5SRI9 98-462)
- Km (purified protein): 426 ± 33 µM
- kcat (purified protein): 0.462 ± 0.0167 s⁻¹
